Like-named read-outs stand apart in the source and are kept apart here.

16 compounds from patent publication US20220324876A1, “4-SUBSTITUTED PYRANO[3,4,b]PYRAZINE KAPPA AGONISTS FOR TREATING DRUG DEPENDENCY” (The Rockefeller University, priority 2019, published 2022) can be followed below.

Data set [1] concerns the target T1, human kappa opioid receptors (Homo sapiens, UniProt P41145).
T1 construct: expressed in transfected cells; host or cells: U2OS
As to the kind of experiment: [35S]GTPγS binding, membranes from U2OS cells. It is filed as biochemical. The settings on record: for Emax: read-out: GTPγS (% efficacy). On the technique in general: GTPγS is a poorly hydrolysed GTP analogue; its binding reports G protein activation.

In data set [2] the test system is male mice. As to the kind of experiment: Serum prolactin release in mice. The following applies: dose-response experiment. It counts as in vivo.
The test system of data set [3] is male mice. As to the kind of experiment: Rotarod incoordination (sedation) in mice. It is filed as in vivo. The text has this: In the case of rotarod incoordination, kappa agonist effects in this assay reflect kappa-opioid receptor arrestin mediated signaling. This assay is thought to be a sensitive measure of the sedative properties of kappa opioid receptor agonists. Generally, a compound which has reduced efficacy in the coupling of arrestin with the kappa opioid receptor is thought to have a lowered potential for the sedative side effects of kappa opioid receptor ligands Rotarod assays in vivo are employed to confirm this possibility.
Rotarod experiments are conducted with mice using a dedicated rodent rotarod apparatus, with up to five animals tested concurrently (IITC Life Science, Woodland Hills, Calif, USA). Rotarod rotation rate begins at 3 rotations per minute, and ramps to 30 rotations per minute over the course of 300 s, at which time the assay is terminated and animals removed to their home cage. Animals are acclimated to the rotarod on at least two occasions prior to the day of the test. On the day of the test, baseline times for each animal to fall off the rotarod are recorded. Mice are then injected intraperitoneally with vehicle or compound, and rotarod measurements conducted, beginning 0-2 minutes after injection, and then subsequently at select time points thereafter. Animals which fail to remain on the rotarod for at least 150 seconds during baseline testing are removed from the analysis.
(The closure of laboratories during the covid-19 pandemic delayed the carrying out of conditioned place aversion assays and modulation of cocaine self-administration, so that results were not available by the filing date of this application.)
(In general: The rotarod test checks motor coordination on a turning rod.)

Data set [4] has as its target kappa opioid receptor (hOPRK1) β-arrestin (Homo sapiens, UniProt P41145). As to the kind of experiment: β-arrestin PathHunter assay (U2OS hOPRK1). The following applies: for Arrestin efficacy, %: Table E.

Sequence of kappa opioid receptor (hOPRK1) β-arrestin (P41145 whole entry): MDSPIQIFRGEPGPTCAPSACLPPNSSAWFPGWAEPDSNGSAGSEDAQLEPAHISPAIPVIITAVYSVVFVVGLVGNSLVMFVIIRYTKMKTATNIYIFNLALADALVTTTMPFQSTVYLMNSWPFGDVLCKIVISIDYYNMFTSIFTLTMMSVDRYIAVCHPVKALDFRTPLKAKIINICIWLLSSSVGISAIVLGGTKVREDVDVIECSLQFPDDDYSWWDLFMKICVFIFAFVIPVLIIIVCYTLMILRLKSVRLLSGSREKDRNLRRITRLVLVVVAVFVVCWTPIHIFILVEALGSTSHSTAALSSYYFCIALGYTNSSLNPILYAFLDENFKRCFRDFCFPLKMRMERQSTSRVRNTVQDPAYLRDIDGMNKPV
T1 sequence (P41145 whole entry): as above

As for `CC(C)(O)CN1CCN(C(=O)Cc2ccc(Cl)c(Cl)c2)[C@H]2[C@H](N3CCCC3)COC[C@@H]21` (single isomer, unassigned) [Example 5A90B], the EC50 in data set [1] (GTPγS EC50 (nM), Table D) was found to be 5.4 nM; in data set [1] (GTPγS potency (nM), Table E), 8.9 nM; in data set [4], 5250 nM. For the same compound, the “GTPγS efficacy, %” value in data set [1] (Table E) stood at 69.3%. For the same compound, in data set [1], the Emax is 68%. Moreover, the “stimulation of prolactin levels” value in the data set on male mice [2] (30 mg/kg (p<0.05)) and in the data set on male mice [2] (90 mg/kg (p<0.005)) was “statistically significant stimulation” each time. In addition, the “sedative effect in rotarod” value is “not” with male mice [3] (10 mg/kg intraperitoneally), “not” with male mice [3] (30 mg/kg intraperitoneally) and “substantial sedative effect” with male mice [3] (90 mg/kg intraperitoneally). Moreover, the “Arrestin efficacy, %” value in data set [4] came out at 46.5%.

As to `CC(C)(O)CN1CCN(C(=O)Cc2ccc(Cl)c(Cl)c2)[C@H]2[C@H]1COC[C@@H]2N1CCCC1` (single isomer, unassigned) [Example 5A90A], the EC50 in data set [1] (GTPγS EC50 (nM), Table D) worked out at 22 nM; in data set [1] (GTPγS potency (nM), Table E), 34.7 nM; in data set [4] it was 43200 nM. Further, in data set [1] (Table E), the “GTPγS efficacy, %” value was found to be 91.0%. Besides, the Emax in data set [1] was 101%. Moreover, the “Arrestin efficacy, %” value in data set [4] was 78.1%.

Take `CC(C)(O)C(=O)N1CCN(C(=O)Cc2ccc(Cl)c(Cl)c2)[C@H]2[C@H](N3CCCC3)COC[C@@H]21` [Example 5A96B]: the EC50 in data set [1] (GTPγS EC50 (nM), Table D) is 64 nM; in data set [1] (GTPγS potency (nM), Table E) it was 71.4 nM; in data set [4], 24800 nM. In addition, the “GTPγS efficacy, %” value in data set [1] (Table E) came out at 123.5%. The Emax in data set [1] was found to be 113%. Further, in data set [4], the “Arrestin efficacy, %” value stood at 60.7%.

In data set [1] (GTPγS EC50 (nM), Table D), `O=C(CN1CCN(C(=O)Cc2ccc(Cl)c(Cl)c2)[C@H]2[C@H]1COC[C@@H]2N1CCCC1)N1CCCC1` (racemic) [rac-5A113] yielded a half-maximal effective concentration (EC50) of 70 nM. In addition, the Emax in data set [1] turned out to be 92%.

In data set [1] (GTPγS EC50 (nM), Table D), `O=C(Cc1ccc(Cl)c(Cl)c1)N1CCN(CCCO)[C@@H]2COC[C@H](N3CCCC3)[C@H]21` (racemic) [rac-5A75] registered an EC50 of 39 nM. Also, in data set [1], the Emax came out at 89%.

`O=C(Cc1ccc(Cl)c(Cl)c1)N1CCN(CCO)[C@H]2COC[C@@H](N3CCCC3)[C@@H]21` (single isomer, unassigned) [Example 5A74B] yielded an EC50 in data set [1] (GTPγS EC50 (nM), Table D) of 12 nM. The Emax in data set [1] amounted to 95%.

Regarding `O=C(O)CN1CCN(C(=O)Cc2ccc(Cl)c(Cl)c2)[C@H]2[C@H]1COC[C@@H]2N1CCCC1` (racemic) [rac-5A88], in data set [1], a half-maximal effect (EC50) was put at 2490 nM and the Emax turned out to be 83%.

As for `O=C(Cc1ccc(Cl)c(Cl)c1)N1CCN(CC2CCCO2)[C@H]2COC[C@@H](N3CCCC3)[C@@H]21` (single isomer, unassigned) [Example 5A138D], the response in data set [1] (GTPγS EC50 (nM), Table D) was half-maximal at 100 nM (EC50). The Emax in data set [1] is 102%.

For the compound `O=C(Cc1ccc(Cl)c(Cl)c1)N1CCN(C(=O)c2cc[nH]n2)[C@@H]2COC[C@H](N3CCCC3)[C@H]21` (racemic) [rac-5A122], the EC50 in data set [1] (GTPγS EC50 (nM), Table D) turned out to be 31 nM. In addition, in data set [1], the Emax is 79%.

In data set [1] (GTPγS EC50 (nM), Table D), `O=C(Cc1ccc(Cl)c(Cl)c1)N1CCN(Cc2ccccn2)[C@@H]2COC[C@H](N3CCCC3)[C@H]21` (racemic) [rac-5A80] showed an EC50 of 64 nM. Further, the Emax in data set [1] was 94%.

`O=C(Cc1ccc(Cl)c(Cl)c1)N1CCN(Cc2ncccn2)[C@@H]2COC[C@H](N3CCCC3)[C@H]21` (racemic) [rac-5A69] gave an EC50 in data set [1] (GTPγS EC50 (nM), Table D) of 94 nM. Further, in data set [1], the Emax was 114%.

Compound `O=C(Cc1ccc(Cl)c(Cl)c1)N1CCN(Cc2ccon2)[C@H]2COC[C@@H](N3CCCC3)[C@@H]21` [Example 5A86B] came in with an EC50 in data set [1] (GTPγS EC50 (nM), Table D) of 23 nM. In addition, the Emax in data set [1] came out at 79%.

As to `CC(C)(O)C(=O)N1CCN(C(=O)Cc2ccc(Cl)c(Cl)c2)[C@H]2[C@H]1COC[C@@H]2N1CCCC1` [Example 5A96A], the EC50 in data set [1] (GTPγS EC50 (nM), Table D) came to 17 nM; in data set [1] (GTPγS potency (nM), Table E), 32.8 nM; in data set [4], 3760 nM. The “GTPγS efficacy, %” value in data set [1] (Table E) is recorded as 77.0%. Besides, in data set [1], the Emax turned out to be 64%. The “sedative effect in rotarod” value in the data set with male mice [3] (up to 90 mg/kg intraperitoneally) is “no statistically significant sedative effect”. Also, the “Arrestin efficacy, %” value in data set [4] worked out at 53.0%.

Consider `COCCS(=O)(=O)N1CCN(C(=O)Cc2ccc(Cl)c(Cl)c2)[C@H]2[C@H]1COC[C@@H]2N1CCCC1` (single isomer, unassigned) [Example 5A146A], for which, in data set [1] (GTPγS EC50 (nM), Table D), the EC50 came to 9.2 nM. Besides, the Emax in data set [1] was 91%.

As to `COCCN1CCN(C(=O)Cc2ccc(Cl)c(Cl)c2)[C@H]2[C@H](N3CCCC3)COC[C@@H]21` (single isomer, unassigned) [Example 5A141B], in data set [1] (GTPγS EC50 (nM), Table D), a half-maximal effect (EC50) was put at 26 nM. The Emax in data set [1] amounted to 103%.

With `CN(C)S(=O)(=O)N1CCN(C(=O)Cc2ccc(Cl)c(Cl)c2)[C@H]2[C@H]1COC[C@@H]2N1CCCC1` (single isomer, unassigned) [Example 5A56A], in data set [1] (GTPγS EC50 (nM), Table D), the response was half-maximal at 11 nM (EC50). For the same compound, the Emax in data set [1] is 77%.

One may read the EC50 as the concentration at which the effect is half-maximal. The low end stands for higher potency in that assay, the high end for lower potency in that assay.
